The values that follow are results of earlier work, collected in US20250009647A1, “PHARMACEUTICAL COMPOSITION” (priority 2021, published 2025).

For data set [1] the following is noted: in water.
For data set [2] the following is noted: in DMSO.

Consider `NS(=O)(=O)O` [Sulfamic acid], for which the “pKa(H2O)” value in data set [1] is 0.99. Also, in data set [2], the “pKa(DMSO)” value is 6.5.

Regarding `O=C(O)C(=O)O` [Oxalic acid], the “pKa(H2O)” value in data set [1] is reported as 1.46. In addition, the “pKa(DMSO)” value in data set [2] was 6.2.

For `O=C(O)c1cc2ccccc2c(Cc2c(O)c(C(=O)O)cc3ccccc23)c1O` [Pamoic acid], the “pKa(H2O)” value in data set [1] is recorded as 2.67.
